The subject of data set [1] is human nose. The settings on record: cited from earlier work; for Olfactory Power (pOl): in air, pOl=−log [odorant] as volumetric fraction; for Olfactory Power (p. ol): Table 4.
A short description of data set [2]: Odorant vapor pressure and odorant-hydrogen phase equilibrium (Raoult's Law). As for the experimental part:
To quantitatively validate the concentration of an odorant in the gas phase at high pressure, first order phase equilibrium equations may be used.
It is also assumed that the odorant is saturated. This means that at the constant pressure when odorant is added, the amount of odorant in the vapor phase remains constant. The equation used to find the fraction of the vapor phase taken solely by the odorant is Raoult's Law: xAPA^sat=yAP
Where, xA is the odorant's fraction of the liquid phase, yA is the odorant's fraction of the vapor phase, PA^sat is the vapor pressure of the saturated odorant, and P is the total pressure within the system.
With these values, the concentration of odorant may be found at ambient conditions for the storage conditions of 6,000 psi. To calculate the pressure needed to produce a certain saturated concentration of odorant in the vapor phase: […]

For data set [3] the following is noted: @ 25° C.; cited from earlier work.
Data set [4] concerns human nose. Nature of the data set: Standard human olfactory power / odor threshold. Format: in vivo. The conditions noted are these: for Odorant Threshold: minimum detection concentration. From the text:
Another important property of an odorant is its odor threshold. A suitable odorant should be detectable by the human nose at very low concentrations. […] To ensure simultaneous outflow in case of a leak, both components should be in the same phase and well blended. Some odor threshold values may be found in the Handbook of Hazardous Chemical Properties. In addition, the American Industrial Hygiene Association (AIHA) publishes a book of odor threshold values (Odor Thresholds for Chemicals with Established Occupational Health Standards).
Certain functional groups, such as the mercaptans, have high potency odors. According to published standardized human olfactory thresholds, mercaptans are among the strongest smelling compounds known. The stench of mercaptans is a key reason why these compounds were chosen for natural gas odorization. The following is a list of functional groups that may be used to highlight key factors for olfactory thresholds in humans. Standard olfactory power refers to the minimum concentration at which a particular compound is detectable by the average person. The mathematical definition is given as the negative log of odorant concentration expressed in volumetric fraction: pOl=−log [odorant]. Based on this definition an olfactory power of “0/6/9” corresponds to “odorlessness/1 ppm/1 ppb” threshold levels, respectively.

In data set [5] the test system is average weight person. The conditions noted are these: cited from earlier work.

The structures appear in SMILES notation. Where a name gives a salt, the structure may show the parent alone. Read-outs that look alike come from different tables or passages of the source.

The text below walks through data of patent publication US7811688B2 (Enersol, Inc. N.A., LP, priority 2002, dated 2010).

As to `CCCO` [Odorant 1-propanol, 1-propanol], the “Olfactory Power (pOl)” value in data set [1] was 5.62.

Turning to `CC=O` [acetaldehyde], in data set [1], the “Olfactory Power (pOl)” value is 6.73.

As for `CC(C)=O` [acetone], in data set [1], the “Olfactory Power (pOl)” value is reported as 4.84.

With `CCCC` [butane], the “Olfactory Power (pOl)” value in data set [1] was 3.69.

Consider `CCNCC` [diethylamine], for which the “Olfactory Power (pOl)” value in data set [1] is 6.73.

With `CC[Se]CC` [diethylselenide, diethyl selenide], the “Olfactory Power (pOl)” value in data set [1] is on record as 9.13.

For the compound `CCSCC` [diethylsulfide], the “Olfactory Power (pOl)” value in data set [1] is reported as 8.41.

Take `C[Se]C` [dimethyl selenide]: in data set [2] (@ 6000 psi, 25° C.), the “Saturated Odorant Concentration yA” value was 773 ppm. The “Odorant Vapor Pressure PA^SAT” value in data set [3] is reported as 4.6 psi.

Turning to `CNC` [dimethylamine, dimethyl amine], in data set [2], the “Saturated Odorant Concentration yA” value is reported as 4892 ppm and the “‘B’ Saturated Odorant Loading [6000 psi H2]” value (from here on “‘B’ Saturated Odorant Loading”) worked out at 4892 ppm. In data set [4] (Table 4), the “Odorant Threshold” value was 0.08128 ppm. Besides, in data set [3], the “Odorant Vapor Pressure PA^SAT” value is on record as 29.4 psi. In data set [1], the “Olfactory Power (pOl)” value was 7.09.

For `CSC` [dimethylsulfide], the “Olfactory Power (pOl)” value in data set [1] is recorded as 8.65.

Take `CC` [ethane]: the “Olfactory Power (pOl)” value in data set [1] is reported as 2.00.

Turning to `CCO` [ethanol], the “‘B’ Saturated Odorant Loading” value in data set [2] (PA^sat/P × 10^6 at 6000 psi) is reported as 190 ppm. Moreover, the “concentration in the vapor phase” value in data set [2] (at 6000 psi) was no more than 190 ppm. Besides, the “Odorant Threshold” value in data set [4] (Table 4) was found to be 28.840 ppm. Moreover, the “Olfactory Power (pOl)” value in data set [1] is on record as 4.54.

In the case of `CCS` [ethyl mercaptan], the “Saturated Odorant Concentration yA” value in data set [2] (@ 6000 psi, 25° C.) was 1705 ppm. Moreover, in data set [2] (PA^sat/P × 10^6 at 6000 psi), the “‘B’ Saturated Odorant Loading” value turned out to be 1705 ppm. In addition, the “times higher detectability as compared to ethanol” value in data set [4] (FIG. 3) is 30,000 times. Moreover, in data set [4] (Table 3), the “Odorant Threshold” value amounted to 0.00107 ppm. In addition, in data set [4] (Table 4), the “Odorant Threshold” value came out at 0.001072 ppm. The “Odorant Vapor Pressure PA^SAT” value in data set [3] is recorded as 10.2 psi. Moreover, in data set [1], the “Olfactory Power (p. ol)” value was 8.97 and the “Olfactory Power (pOl)” value is 8.97.

With `CC[SeH]` [ethyl selenol], the “Odorant Vapor Pressure PA^SAT” value in data set [2] (@ 25° C., estimated value based on known vapor pressures of structurally similar compounds) is given as roughly 5 psi. In addition, the “Saturated Odorant Concentration yA” value in data set [2] (@ 6000 psi, 25° C.) is listed as roughly 833 ppm. Also, in data set [2] (PA^sat/P × 10^6 at 6000 psi), the “‘B’ Saturated Odorant Loading” value is recorded as 833 ppm. In addition, the “times higher detectability as compared to ethyl mercaptan” value in data set [4] (FIG. 3) worked out at 67 times. The “Odorant Threshold” value in data set [4] (Table 4) was 0.000018 ppm. For the same compound, the detectability in data set [4] (based on its olfactory power) is 1.8E-5 ppm. For the same compound, in data set [1], the “Olfactory Power (pOl)” value is listed as 10.74.

Turning to `CCN` [ethylamine, ethyl amine], the “Olfactory Power (pOl)” value in data set [1] is listed as 6.49.

On to `CCCl` [ethylchloride], for which, in data set [2] (PA^sat/P × 10^6 at 6000 psi), the “‘B’ Saturated Odorant Loading” value came to 3256 ppm. The “Odorant Threshold” value in data set [4] (Table 4) is listed as 4.074 ppm. Further, the “Olfactory Power (pOl)” value in data set [1] is 5.39.

For `CC(C)CS` [isobutyl mercaptan], the “Olfactory Power (pOl)” value in data set [1] is on record as 8.95.

For the compound `CO` [methanol], the “Olfactory Power (pOl)” value in data set [1] was 3.85.

For the compound `COC(C)=O` [methyl acetate], in data set [1], the “Olfactory Power (pOl)” value was 5.21.

On to `COC=O` [methyl formate], for which the “Olfactory Power (pOl)” value in data set [1] is 4.03.

Consider `CS` [methyl mercaptan], for which, in data set [1], the “Olfactory Power (pOl)” value is listed as 8.98.

Consider `CN` [methylamine, methyl amine], for which the “‘B’ Saturated Odorant Loading” value in data set [2] (PA^sat/P × 10^6 at 6000 psi) was 8543 ppm. In addition, the “Odorant Threshold” value in data set [4] (Table 4) was 0.01862 ppm. Further, the “Olfactory Power (pOl)” value in data set [1] was 7.73.

Turning to `CCSC` [methylethylsulfide], the “Olfactory Power (pOl)” value in data set [1] is recorded as 8.42.

In the case of `CCC` [propane], the “Olfactory Power (pOl)” value in data set [1] was 2.57.

For the compound `CCCN` [propylamine, propyl amine], the “Saturated Odorant Concentration yA” value in data set [2] (@ 6000 psi, 25° C.) is 999 ppm. Further, in data set [2] (PA^sat/P × 10^6 at 6000 psi), the “‘B’ Saturated Odorant Loading” value is listed as 999 ppm. Also, in data set [4] (Table 4), the “Odorant Threshold” value worked out at 0.01097 ppm. In data set [3], the “Odorant Vapor Pressure PA^SAT” value is recorded as 6.0 psi. Moreover, in data set [1], the “Olfactory Power (pOl)” value is on record as 7.96.

Consider `c1ccncc1` [pyridine], for which, in data set [2], the “Saturated Odorant Concentration yA” value was determined as 67 ppm, the “maximum concentration in the vapor/gas phase” value is listed as 67 ppm and the “‘B’ Saturated Odorant Loading” value was 67 ppm. In addition, the “Odorant Threshold” value in data set [4] (Table 4) came out at 0.08511 ppm. In data set [3], the “Odorant Vapor Pressure PA^SAT” value is 0.4 psi. Moreover, the “Olfactory Power (p. ol)” value in data set [1] is recorded as 7.07.

Consider `[Se]` [selenium], for which the “ingested quantity at which selenosis occurs” value in data set [5] is given as 5 mg/day.

On to `CC(C)(C)S` [t-butyl mercaptan], for which the “Saturated Odorant Concentration yA” value in data set [2] (@ 6000 psi, 25° C.) is given as 583 ppm. Also, the “maximum concentration in the vapor/gas phase” value in data set [2] (at 6000 psi) is listed as “approximately 580 ppm”. Also, the “Olfactory Power (pOl)” value in data set [1] was 9.48.

Turning to `CN(C)C` [trimethyl amine], in data set [2] (@ 6000 psi, 25° C.), the “Saturated Odorant Concentration yA” value is reported as 5172 ppm. For the same compound, the “Odorant Vapor Pressure PA^SAT” value in data set [3] is recorded as 31.0 psi.
